In patent US9353082B2, “Pharmaceutical compounds” (BIAL—PORTELA & CA, S.A., priority 2008, dated 2016):

Tests used:
carboxylesterase (CE) = assay: Carboxylesterase (CE) activity in rat liver microsomes (LVms), p-nitrophenyl acetate; format: biochemical; details: 10 uM compound, read 10 min after substrate, remaining CE activity
Experimental: (§1) FAAH inhibition was determined as described above. Inhibition of monoacylglycerol lipase (MAGL) and carboxylesterase (CE) was performed according to the protocols described below. The controls for both in vitro and in vivo were the reaction mix minus the test compounds. Therefore, a low value in Table 2 below for the test compounds indicates a strong inhibitor.
CE activity measurement is based on the formation of p-nitrophenol from p-nitrophenyl acetate. Briefly, in 96-well plates 8 μg/ml of rat or mouse liver microsomes (LVms) were incubated with 10 μM FAAH inhibitors for 15 min and then the substrate, p-nitrophenyl acetate, was added to a final concentration of 1 mM. The plate was read at 405 nm 10 min after substrate addition for the appearance of p-nitrophenol using a spectrophotometer. The carboxylesterase activity in microsome extracts without inhibitor added were set at 100% as control and the remaining CE activities after incubation with inhibitors were calculated relative to the control.

[1] = biological target: T1, monoacylglycerol lipase (MAGL) (Rattus norvegicus, UniProt Q8R431); assay: MAGL activity in rat cerebella cytosol (CRBcyt), hydrolysis of [3H] 2-OG; format: biochemical, WISTAR rats; details: 12.5 uM compound, remaining MAGL activity
T1 construct: cerebella cytosol (CRBcyt) fractions, previously obtained from adult WISTAR rats; from tissue; host or cells: adult Wistar rat cerebella, cytosol fraction
T1 sequence (Q8R431 1-303): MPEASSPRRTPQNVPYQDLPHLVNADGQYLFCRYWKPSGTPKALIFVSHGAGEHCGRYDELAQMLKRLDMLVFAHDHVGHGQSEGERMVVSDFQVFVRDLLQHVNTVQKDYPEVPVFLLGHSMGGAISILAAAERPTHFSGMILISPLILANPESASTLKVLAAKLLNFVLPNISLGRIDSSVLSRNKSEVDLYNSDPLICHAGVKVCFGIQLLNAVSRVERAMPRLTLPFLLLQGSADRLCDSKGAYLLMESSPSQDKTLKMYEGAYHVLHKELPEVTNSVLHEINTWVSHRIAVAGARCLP
Experimental: as §1
MAGL activity measurement was based on rate of hydrolysis of [^3H] 2-OG (glycerol labeled) as substrate. Briefly, cerebella cytosol (CRBcyt) fractions, previously obtained from adult WISTAR rats, were diluted to appropriate assay protein concentrations in Tris-HCl buffer (10 mM, pH 7.2) containing 1 mM EDTA, and were added to assay tubes containing test compound. Blanks contained assay buffer instead of cytosol samples were used as control. […] The final assay contained 0.125% w v^−1 fatty acid-free BSA. After the incubation phase, reactions were stopped by adding 400 μL chloroform:methanol (1/1 v v^−1), vortex mixing the tubes two times and placing them on ice. Phases were separated by centrifugation and 200 μL aliquots of the methanol/buffer phase were taken and tritium content assayed by liquid scintillation spectroscopy with quench correction.

FAAH = biological target: T2, FAAH (Rattus norvegicus, UniProt P97612); assay: In vitro FAAH activity in rat brain membranes, 3H-AEA substrate, % of control; format: biochemical, Wistar rats; details: low value = strong inhibitor
T2 construct: Frozen brains (without cerebellum) from Wistar rats were used; from tissue; host or cells: Wistar rat brain (without cerebellum), washed membrane pellets
T2 sequence (P97612 1-579): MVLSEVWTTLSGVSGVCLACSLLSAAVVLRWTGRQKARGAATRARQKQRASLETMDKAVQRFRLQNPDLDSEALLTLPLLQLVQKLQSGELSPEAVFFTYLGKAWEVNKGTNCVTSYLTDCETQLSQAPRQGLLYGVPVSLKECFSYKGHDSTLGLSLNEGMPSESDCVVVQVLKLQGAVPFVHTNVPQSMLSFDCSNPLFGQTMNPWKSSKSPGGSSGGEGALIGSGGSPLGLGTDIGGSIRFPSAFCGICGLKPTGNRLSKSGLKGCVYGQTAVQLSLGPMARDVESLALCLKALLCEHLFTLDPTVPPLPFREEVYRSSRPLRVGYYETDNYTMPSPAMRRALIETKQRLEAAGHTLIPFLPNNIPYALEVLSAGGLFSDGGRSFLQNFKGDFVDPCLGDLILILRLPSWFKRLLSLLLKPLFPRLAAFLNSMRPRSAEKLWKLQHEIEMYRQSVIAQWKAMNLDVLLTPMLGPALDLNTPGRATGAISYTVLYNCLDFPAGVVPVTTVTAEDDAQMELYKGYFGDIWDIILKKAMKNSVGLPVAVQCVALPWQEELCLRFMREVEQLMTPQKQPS
Outline: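 Wistar rat brain membranes (5 μg protein) preincubated 15 min at 37 °C with compound at 10 μM or 0.1 μM (0.1% DMSO), then 2 μM AEA including 3H-AEA with 0.1% BSA, Tris pH 7.6, 10 min. 3H-ethanolamine counted after charcoal stop; % of no-compound control after blank subtraction.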

Which results are given for `COc1cccc(-c2cn(C(=O)N3CCCc4ccccc43)cn2)c1` [Compound 39, (3,4-dihydroquinolin-1(2H)-yl)(4-(3-methoxyphenyl)-1H-imidazol-1-yl)methanone]?
CE Rat LVms 10 uM 10 min (carboxylesterase (CE)): 94.7 % of control; MAGL Rat CRBcyto 12.5 uM 8 min [1]: 87 % of control; FAAH 10 uM (FAAH; 10 uM compound, rat brain membranes, 100 = no measurable inhibition): 16 % of control; In Vitro FAAH activity, 10 uM (FAAH; 10 uM test compound): 16 % of control
